Literature values, collected in patent US8518458B2, “Tea-derived compositions and methods of using same for cardiovascular health” (Immune Guard, LLC, priority 2006, dated 2013).

Settings: spontaneously hypertensive rats

SMILES: CCNC(=O)CC[C@H](N)C(=O)O [L-theanine, γ-glutamylethylamide]
- effect on blood pressure: reduces blood pressure
